Reference: PubChem BioAssay AID2060900 (Molecular Pharmacology Branch, DTP, NCI, 2025)

Test system: 521955-158-R2-J5-PDC complex spheroids, viability
Assay: Anticancer human tumor 521955-158-R2-J5-PDC patient-derived pancreatic carcinoma cell line growth inhibition [RAS]
Conditions: for IC50: curve of first compound; for viability, T/C: stronger effect = lower value
Outline: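 Multi-cell-type spheroids: tumor cells plus HUVEC endothelial cells and mesenchymal stem cells. RAS-pathway inhibitors were combined with targeted agents, each dosed in half-log steps down from clinical Cmax, or from 10 microM when Cmax was unknown.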
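Note: compound exposure lasted seven days before the viability read.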
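Throughout, for viability, T/C: spheroids also contain HUVEC endothelial cells and mesenchymal stem cells as stroma.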

Structure (SMILES): CC(C)NCC(C(=O)N1CCN(c2ncnc3c2C(C)CC3O)CC1)c1ccc(Cl)cc1 (configuration not stated) + C=CC(=O)N1CCN(c2nc(OCC3CCCN3C)nc3c(F)c(-c4nc(N)cc(C)c4C(F)(F)F)c(Cl)cc23)C(C)C1
- IC50 (second compound 0.00316 µM): > 10 µM
- IC50 (second compound 0.01 µM): > 10 µM
- IC50 (second compound 0.0316 µM): > 10 µM
- IC50 (second compound 0.1 µM): > 10 µM
- IC50 (second compound 0.316 µM): > 10 µM
- IC50 (second compound 1 µM): > 10 µM
- viability, T/C (second compound 0.00316 µM, first compound 0.0316 µM): 95.9%
- viability, T/C (second compound 0.00316 µM, first compound 0.1 µM): 93.2%
- viability, T/C (second compound 0.00316 µM, first compound 0.316 µM): 99%
- viability, T/C (second compound 0.00316 µM, first compound 1 µM): 79.7%
- viability, T/C (second compound 0.00316 µM, first compound 3.16 µM): 66.4%
- viability, T/C (second compound 0.00316 µM, first compound 10 µM): 54.6%
- viability, T/C (second compound 0.01 µM, first compound 0.0316 µM): 77%
- viability, T/C (second compound 0.01 µM, first compound 0.1 µM): 115%
- viability, T/C (second compound 0.01 µM, first compound 0.316 µM): 95.6%
- viability, T/C (second compound 0.01 µM, first compound 1 µM): 92.9%
- viability, T/C (second compound 0.01 µM, first compound 3.16 µM): 69.1%
- viability, T/C (second compound 0.01 µM, first compound 10 µM): 55%
- viability, T/C (second compound 0.0316 µM, first compound 0.0316 µM): 84.1%
- viability, T/C (second compound 0.0316 µM, first compound 0.1 µM): 101%
- viability, T/C (second compound 0.0316 µM, first compound 0.316 µM): 91.8%
- viability, T/C (second compound 0.0316 µM, first compound 1 µM): 94.7%
- viability, T/C (second compound 0.0316 µM, first compound 3.16 µM): 61.2%
- viability, T/C (second compound 0.0316 µM, first compound 10 µM): 55.1%
- viability, T/C (second compound 0.1 µM, first compound 0.0316 µM): 88.7%
- viability, T/C (second compound 0.1 µM, first compound 0.1 µM): 104%
- viability, T/C (second compound 0.1 µM, first compound 0.316 µM): 113%
- viability, T/C (second compound 0.1 µM, first compound 1 µM): 89%
- viability, T/C (second compound 0.1 µM, first compound 3.16 µM): 67.1%
- viability, T/C (second compound 0.1 µM, first compound 10 µM): 49.6%
- viability, T/C (second compound 0.316 µM, first compound 0.0316 µM): 105%
- viability, T/C (second compound 0.316 µM, first compound 0.1 µM): 138%
- viability, T/C (second compound 0.316 µM, first compound 0.316 µM): 92.4%
- viability, T/C (second compound 0.316 µM, first compound 1 µM): 72.1%
- viability, T/C (second compound 0.316 µM, first compound 3.16 µM): 59.6%
- viability, T/C (second compound 0.316 µM, first compound 10 µM): 49.9%
- viability, T/C (second compound 1 µM, first compound 0.0316 µM): 103%
- viability, T/C (second compound 1 µM, first compound 0.1 µM): 80.2%
- viability, T/C (second compound 1 µM, first compound 0.316 µM): 104%
- viability, T/C (second compound 1 µM, first compound 1 µM): 71.3%
- viability, T/C (second compound 1 µM, first compound 3.16 µM): 61.9%
- viability, T/C (second compound 1 µM, first compound 10 µM): 55.3%
